Measured values from US20150299188A1, “HETEROCYCLIC COMPOUND” (priority 2012, published 2015).

These compounds were tested on FLAP (5-lipoxygenase activating protein) (assay: In vitro binding test: displacement of [3H]-7-chloro-3-(5-((3-fluoropyridin-2-yl)methoxy)-2-methylphenyl)-3,4-dihydroquinazolin-2(1H)-one from Sf9 microsome fractions). Details: Sf9 microsome fractions expressing FLAP; 100% = radioligand binding with 10 μM sodium 3-(3-(tert-butylsulfanyl)-1-(4-chlorobenzyl)-5-isopropyl-1H-indol-2-yl)-2,2-dimethylpropanoate, 0% = DMSO; test compound concentration not given.
Parameters: species or system human and mouse
Summary of the method: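 Sf9 microsomes expressing human or mouse FLAP (2 μg/mL) preincubated with compound 10 min at room temperature, then 120 nM tritiated quinazolinone ligand added for 60 min; buffer 100 mM Tris-HCl pH 7.5 with NaCl, EDTA, DTT, glycerol, Tween20. Bound ligand filtered and counted by scintillation; 10 μM indole propanoate defines 100% inhibition, DMSO 0%.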

inhibitory rate (%)	SMILES
105	CCCN(C)C(=O)c1ccc2c(c1)NC(=O)N(c1cc(OCc3ncccc3F)ccc1C)C2 [Example 266, 3-(5-((3-fluoropyridin-2-yl)methoxy)-2-methylphenyl)-N-methyl-2-oxo-N-propyl-1,2,3,4-tetrahydroquinazoline-7-carboxamide]
52	COc1ncnc2c1CN(c1cc(OCc3ncccc3F)ccc1C)C(=O)N2 [Example 319, 3-(5-((3-fluoropyridin-2-yl)methoxy)-2-methylphenyl)-5-methoxy-3,4-dihydropyrimido[4,5-d]pyrimidin-2(1H)-one]
108	Cc1ccc(OCc2ncccc2F)cc1N1Cc2ccc(C(=O)NCC(F)(F)F)cc2NC1=O [Example 303, 3-(5-((3-fluoropyridin-2-yl)methoxy)-2-methylphenyl)-2-oxo-N-(2,2,2-trifluoroethyl)-1,2,3,4-tetrahydroquinazoline-7-carboxamide]
103	Cc1ccc(OCc2ncccc2Cl)cc1N1Cc2ccccc2NC1=O [Example 187, 3-(5-((3-chloropyridin-2-yl)methoxy)-2-methylphenyl)-3,4-dihydroquinazolin-2(1H)-one]
104	COC(=O)c1ccc2c(c1)NC(=O)N(c1cc(OCc3ncccc3F)ccc1C)C2 [Example 216, methyl 3-(5-((3-fluoropyridin-2-yl)methoxy)-2-methylphenyl)-2-oxo-1,2,3,4-tetrahydroquinazoline-7-carboxylate]
105	O=C1Nc2ccccc2CN1c1cc(OCc2ncccc2F)ccc1F [Example 300, 3-(2-fluoro-5-((3-fluoropyridin-2-yl)methoxy)phenyl)-3,4-dihydroquinazolin-2(1H)-one]
62	Cc1ccc(OCc2c(F)cccc2F)cc1N1Cc2cc(CO)ccc2NC1=O [Example 186, 3-(5-((2,6-difluorobenzyl)oxy)-2-methylphenyl)-6-(hydroxymethyl)-3,4-dihydroquinazolin-2(1H)-one]
97	Cc1ccc(OCc2ncccc2F)cc1-n1c(=O)[nH]c2cc(C(=O)NC3CC3)ccc2c1=O [Example 363, N-cyclopropyl-3-(5-((3-fluoropyridin-2-yl)methoxy)-2-methylphenyl)-2,4-dioxo-1,2,3,4-tetrahydroquinazoline-7-carboxamide]
97	Cc1ccc(OCc2c(F)cccc2F)cc1N1Cc2ccc(C(N)=O)cc2NC1=O [Example 196, 3-(5-((2,6-difluorobenzyl)oxy)-2-methylphenyl)-2-oxo-1,2,3,4-tetrahydroquinazoline-7-carboxamide]
103	Cc1ccc(OCc2ncccc2F)cc1N1Cc2c(O)cccc2NC1=O [Example 305, 3-(5-((3-fluoropyridin-2-yl)methoxy)-2-methylphenyl)-5-hydroxy-3,4-dihydroquinazolin-2(1H)-one]
110	O=C1Nc2ccccc2CN1c1cc(OCc2ncccc2F)ccc1C(F)(F)F [Example 214, 3-(5-((3-fluoropyridin-2-yl)methoxy)-2-(trifluoromethyl)phenyl)-3,4-dihydroquinazolin-2(1H)-one]
95	Cc1ccc(OCc2ncccc2F)cc1N1Cc2c(Cl)cccc2N(Cc2ccccc2C(=O)O)C1=O [Example 296, 2-((5-chloro-3-(5-((3-fluoropyridin-2-yl)methoxy)-2-methylphenyl)-2-oxo-3,4-dihydroquinazolin-1(2H)-yl)methyl)benzoic acid]
106	Cc1ccc(OCc2ncccc2F)cc1-n1c(=O)[nH]c2c(OCC3CC3)cccc2c1=O [Example 353, 8-(cyclopropylmethoxy)-3-(5-((3-fluoropyridin-2-yl)methoxy)-2-methylphenyl)quinazoline-2,4(1H,3H)-dione]
101	Cc1ccc(OCc2ncccc2F)cc1-n1c(=O)[nH]c2cnc(Cl)cc2c1=O [Example 342, 6-chloro-3-(5-((3-fluoropyridin-2-yl)methoxy)-2-methylphenyl)pyrido[3,4-d]pyrimidine-2,4(1H,3H)-dione]
111	CC(=O)c1nccc2c1CN(c1cc3c(cc1C)CCC(c1ncccc1F)O3)C(=O)N2 (stereo not shown) [Example 34, 5-acetyl-3-(2-(3-fluoropyridin-2-yl)-6-methyl-3,4-dihydro-2H-chromen-7-yl)-3,4-dihydropyrido[4,3-d]pyrimidin-2(1H)-one]
107	Cc1ccc(OCc2ncccc2F)cc1-n1c(=O)[nH]c2cc(Cl)ccc2c1=O [Example 351, 7-chloro-3-(5-((3-fluoropyridin-2-yl)methoxy)-2-methylphenyl)quinazoline-2,4(1H,3H)-dione]

Further lines, the compound ahead of its results:

SMILES	inhibitory rate (%)
Cc1ccc(OCc2c(F)cccc2F)cc1-n1c(=O)[nH]c2cc(C(C)(C)O)ccc2c1=O [Example 336, 3-(5-((2,6-difluorobenzyl)oxy)-2-methylphenyl)-7-(2-hydroxypropan-2-yl)quinazoline-2,4(1H,3H)-dione]	108
Cc1cc2c(cc1N1Cc3c(cc(N4CCOC4=O)nc3C3CC3)NC1=O)OC(c1ncccc1F)CC2 (stereo not shown) [Example 138, 5-cyclopropyl-3-(2-(3-fluoropyridin-2-yl)-6-methyl-3,4-dihydro-2H-chromen-7-yl)-7-(2-oxo-1,3-oxazolidin-3-yl)-3,4-dihydropyrido[4,3-d]pyrimidin-2(1H)-one]	109
CCOc1ncc(Cl)c2c1NC(=O)N(c1cc3c(cc1C)CCC(c1ncccc1F)O3)C2 (stereo not shown) [Example 161, 5-chloro-8-ethoxy-3-(2-(3-fluoropyridin-2-yl)-6-methyl-3,4-dihydro-2H-chromen-7-yl)-3,4-dihydropyrido[3,4-d]pyrimidin-2(1H)-one]	90
Cc1cc2c(cc1N1Cc3c(C4CC4)ccnc3NC1=O)OC(c1ncccc1F)CC2 (stereo not shown) [Example 50, 5-cyclopropyl-3-(2-(3-fluoropyridin-2-yl)-6-methyl-3,4-dihydro-2H-chromen-7-yl)-3,4-dihydropyrido[2,3-d]pyrimidin-2(1H)-one]	67
O=C1Nc2ccnc(Cl)c2CN1c1cc2c(cc1C(F)(F)F)CCC(c1ncccc1F)O2 (stereo not shown) [Example 35, 5-chloro-3-(2-(3-fluoropyridin-2-yl)-6-(trifluoromethyl)-3,4-dihydro-2H-chromen-7-yl)-3,4-dihydropyrido[4,3-d]pyrimidin-2(1H)-one]	93
O=C1Nc2c(N3CCSCC3)ncc(Cl)c2CN1c1cc2c(cc1Cl)CCC(c1ncccc1F)O2 (stereo not shown) [Example 130, 5-chloro-3-(6-chloro-2-(3-fluoropyridin-2-yl)-3,4-dihydro-2H-chromen-7-yl)-8-(thiomorpholin-4-yl)-3,4-dihydropyrido[3,4-d]pyrimidin-2(1H)-one]	101
Cc1cc2c(cc1N1Cc3c(ccnc3C(C)(C)O)NC1=O)OC(c1ncccc1F)CC2 (stereo not shown) [Example 33, 3-(2-(3-fluoropyridin-2-yl)-6-methyl-3,4-dihydro-2H-chromen-7-yl)-5-(2-hydroxypropan-2-yl)-3,4-dihydropyrido[4,3-d]pyrimidin-2(1H)-one]	106
Cc1cc2c(cc1N1Cc3c(Cl)cnc(C4CC4)c3NC1=O)OC(c1ncccc1F)CC2 (stereo not shown) [Example 142, 5-chloro-8-cyclopropyl-3-(2-(3-fluoropyridin-2-yl)-6-methyl-3,4-dihydro-2H-chromen-7-yl)-3,4-dihydropyrido[3,4-d]pyrimidin-2(1H)-one]	102
Cc1ncc(Cl)c2c1NC(=O)N(c1cc3c(cc1Cl)CCC(c1ncccc1F)O3)C2 (stereo not shown) [Example 7, 5-chloro-3-(6-chloro-2-(3-fluoropyridin-2-yl)-3,4-dihydro-2H-chromen-7-yl)-8-methyl-3,4-dihydropyrido[3,4-d]pyrimidin-2(1H)-one]	98
O=C1Nc2cc(-c3ccn[nH]3)nc(C3CC3)c2CN1c1cc2c(cc1Cl)CCC(c1ncccc1F)O2 (stereo not shown) [Example 115, 3-(6-chloro-2-(3-fluoropyridin-2-yl)-3,4-dihydro-2H-chromen-7-yl)-5-cyclopropyl-7-(1H-pyrazol-5-yl)-3,4-dihydropyrido[4,3-d]pyrimidin-2(1H)-one]	106
O=C1Nc2cc(N3CCCS3(=O)=O)nc(C3CC3)c2CN1c1cc2c(cc1Cl)CCC(c1ncccc1F)O2 (stereo not shown) [Example 106, 3-(6-chloro-2-(3-fluoropyridin-2-yl)-3,4-dihydro-2H-chromen-7-yl)-5-cyclopropyl-7-(1,1-dioxido-1,2-thiazolidin-2-yl)-3,4-dihydropyrido[4,3-d]pyrimidin-2(1H)-one]	94
Cc1cc2c(cc1N1Cc3c(F)cncc3NC1=O)OC(c1ncccc1F)CC2 (stereo not shown) [Example 88, 5-fluoro-3-(2-(3-fluoropyridin-2-yl)-6-methyl-3,4-dihydro-2H-chromen-7-yl)-3,4-dihydropyrido[3,4-d]pyrimidin-2(1H)-one]	96
Cc1ncc(Cl)c2c1NC(=O)N(c1cc3c(cc1Cl)CC[C@@H](c1ncccc1F)O3)C2 [Example 9, 5-chloro-3-((2S)-6-chloro-2-(3-fluoropyridin-2-yl)-3,4-dihydro-2H-chromen-7-yl)-8-methyl-3,4-dihydropyrido[3,4-d]pyrimidin-2(1H)-one]	104
O=C(c1cc2c(c(C3CC3)n1)CN(c1cc3c(cc1Cl)CCC(c1ncccc1F)O3)C(=O)N2)N1CCOCC1 (stereo not shown) [Example 74, 3-(6-chloro-2-(3-fluoropyridin-2-yl)-3,4-dihydro-2H-chromen-7-yl)-5-cyclopropyl-7-(morpholin-4-ylcarbonyl)-3,4-dihydropyrido[4,3-d]pyrimidin-2(1H)-one]	104
COc1nccc2c1CN(c1cc3c(cc1C)CCC(c1ncccc1F)O3)C(=O)N2 (stereo not shown) [Example 21, 3-(2-(3-fluoropyridin-2-yl)-6-methyl-3,4-dihydro-2H-chromen-7-yl)-5-methoxy-3,4-dihydropyrido[4,3-d]pyrimidin-2 (1H)-one]	103
